In ChEMBL document CHEMBL4616632, “Discovery of Cyclic Boronic Acid QPX7728, an Ultrabroad-Spectrum Inhibitor of Serine and Metallo-β-lactamases” (J Med Chem, 2020):

Key:
[1] = Half life in rat at 10 mg/kg, iv administered as infusion for 0.5 hrs by HPLC/MS analysis; assay type: ADME, organism-based; conditions: in vivo
Enterobacterales [2] = experiment: Potentiation of ceftolozane-induced antibacterial activity against Enterobacterales assessed as ceftolozane MIC90 at 8 ug/ml by broth microdilution method (Rvb > 32 ug/ml); assay type: functional
Klebsiella pneumoniae [3] = experiment: Inhibition of Klebsiella pneumoniae KP1081 NDM-1 assessed as minimum concentration of compound required to reduce the MIC of biapenem to 1 ug/ml
Chymotrypsin = Chymotrypsin (Homo sapiens, UniProt Q99895+P17538+P40313+Q6GPI1); experiment: Inhibition of mammalian chymotrypsin (unknown origin) using Suc-AAPF-AMC as substrate preincubated for 10 mins followed by substrate addition measured after 30 mins; assay type: protein assay
Enterobacterales [4] = experiment: Potentiation of ceftolozane-induced antibacterial activity against Enterobacterales assessed as ceftolozane MIC50 at 8 ug/ml by broth microdilution method (reference value: 32 ug/ml); assay type: functional
[5] = biological target: Beta-lactamase OXA-23 (Acinetobacter baumannii) (UniProt Q9L4P2); experiment: Inhibition of Acinetobacter baumannii AB1054 OXA-23 assessed as minimum concentration of compound needed to reduce the MIC of meropenem to 8 ug/ml
Sequence of Beta-lactamase OXA-23 (Acinetobacter baumannii) (Q9L4P2 whole entry): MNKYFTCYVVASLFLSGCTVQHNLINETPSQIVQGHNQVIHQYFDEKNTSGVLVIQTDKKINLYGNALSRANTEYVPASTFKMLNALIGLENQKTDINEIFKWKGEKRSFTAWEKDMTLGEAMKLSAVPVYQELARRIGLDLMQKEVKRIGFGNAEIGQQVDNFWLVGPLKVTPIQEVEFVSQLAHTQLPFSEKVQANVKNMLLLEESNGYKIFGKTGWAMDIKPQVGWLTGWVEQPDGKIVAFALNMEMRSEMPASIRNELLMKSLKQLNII

[6] = Inhibition of recombinant Escherichia coli IMP-1 using imipenem as substrate preincubated for 10 mins followed by substrate addition measured every 30 secs for 30 mins by spectrophotometrically analysis
[7] = Toxicity in rat assessed as histological changes in tissue at 30 to 300 mg/kg, iv administered daily via infusion for 7 days; assay type: organism-based; conditions: in vivo, 168 h
Cathepsin G = Cathepsin G (Homo sapiens, UniProt P08311); experiment: Inhibition of mammalian cathepsin G (unknown origin) using Suc-AAPF-AMC as substrate preincubated for 10 mins followed by substrate addition measured after 30 mins
Sequence of Cathepsin G (P08311 whole entry): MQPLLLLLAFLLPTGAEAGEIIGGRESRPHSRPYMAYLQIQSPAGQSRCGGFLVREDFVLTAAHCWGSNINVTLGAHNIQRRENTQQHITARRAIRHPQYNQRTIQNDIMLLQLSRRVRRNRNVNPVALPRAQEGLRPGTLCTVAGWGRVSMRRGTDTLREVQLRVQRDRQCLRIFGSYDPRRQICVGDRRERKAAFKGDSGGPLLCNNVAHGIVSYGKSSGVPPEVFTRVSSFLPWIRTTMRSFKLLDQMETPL

Pseudomonas aeruginosa [8] = experiment: Potentiation of meropenem-induced antibacterial activity against Pseudomonas aeruginosa assessed as meropenem MIC50 at 8 ug/ml by broth microdilution method (reference value: 0.5 ug/ml); assay type: functional
Chymase = Chymase (Homo sapiens, UniProt P23946); experiment: Inhibition of mammalian chymase (unknown origin) using Suc-AAPF-AMC as substrate preincubated for 10 mins followed by substrate addition measured after 30 mins
Sequence of Chymase (P23946 whole entry): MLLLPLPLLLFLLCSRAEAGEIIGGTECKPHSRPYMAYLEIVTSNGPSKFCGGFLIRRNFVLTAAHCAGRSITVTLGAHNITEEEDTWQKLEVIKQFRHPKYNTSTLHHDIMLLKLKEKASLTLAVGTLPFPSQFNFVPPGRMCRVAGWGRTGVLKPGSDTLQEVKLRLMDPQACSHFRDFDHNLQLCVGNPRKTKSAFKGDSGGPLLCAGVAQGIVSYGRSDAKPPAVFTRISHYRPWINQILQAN

[9] = Protein binding in human plasma; assay type: ADME, cell-free; conditions: read-out: PPB (converted)
Enterobacterales [10] = experiment: Potentiation of meropenem-induced antibacterial activity against Enterobacterales assessed as meropenem MIC90 at 8 ug/ml by broth microdilution method (Rvb > 32 ug/ml); assay type: functional
Enterobacteriaceae [11] = experiment: Inhibition of OXA-48 in carbapenem-resistant Enterobacteriaceae assessed as potentiation of meropenem-induced antibacterial activity by measuring meropenem MIC50 at 8 ug/ml by broth microdilution method (reference value: 32 ug/ml)
[12] = Clearance in rat at 100 mg/kg, iv administered as infusion for 0.5 hrs by HPLC/MS analysis; assay type: ADME, organism-based; conditions: in vivo
Dipeptidyl peptidase 8 = Dipeptidyl peptidase 8 (Homo sapiens, UniProt Q6V1X1); experiment: Inhibition of mammalian DPP8 (unknown origin) using Lys-Pro-AMC as substrate preincubated for 10 mins followed by substrate addition measured after 30 mins
Sequence of Dipeptidyl peptidase 8 (Q6V1X1 whole entry): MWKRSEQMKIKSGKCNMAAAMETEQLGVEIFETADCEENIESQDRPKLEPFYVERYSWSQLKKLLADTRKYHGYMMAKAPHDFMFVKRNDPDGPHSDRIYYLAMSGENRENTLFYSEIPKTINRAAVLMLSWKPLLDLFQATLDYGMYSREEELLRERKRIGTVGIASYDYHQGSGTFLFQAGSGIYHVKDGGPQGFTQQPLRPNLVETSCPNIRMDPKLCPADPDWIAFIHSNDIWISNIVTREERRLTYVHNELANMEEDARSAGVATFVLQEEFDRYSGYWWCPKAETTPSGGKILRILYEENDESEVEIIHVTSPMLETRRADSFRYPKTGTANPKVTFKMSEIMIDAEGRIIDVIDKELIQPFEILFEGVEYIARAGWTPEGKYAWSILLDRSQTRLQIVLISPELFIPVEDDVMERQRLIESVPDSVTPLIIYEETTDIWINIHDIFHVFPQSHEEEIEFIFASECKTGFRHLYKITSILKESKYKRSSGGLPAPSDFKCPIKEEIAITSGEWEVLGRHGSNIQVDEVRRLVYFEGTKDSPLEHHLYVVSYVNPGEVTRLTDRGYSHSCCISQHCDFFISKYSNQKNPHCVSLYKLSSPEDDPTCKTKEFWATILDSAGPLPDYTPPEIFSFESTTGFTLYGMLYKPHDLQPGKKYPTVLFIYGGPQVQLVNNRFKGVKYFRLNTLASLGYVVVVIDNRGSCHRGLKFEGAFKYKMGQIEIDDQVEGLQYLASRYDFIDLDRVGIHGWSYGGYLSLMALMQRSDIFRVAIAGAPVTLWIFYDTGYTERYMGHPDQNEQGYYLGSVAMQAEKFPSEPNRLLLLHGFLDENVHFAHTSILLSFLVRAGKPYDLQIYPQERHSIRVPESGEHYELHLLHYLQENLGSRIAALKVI

Prothrombin = Prothrombin (Homo sapiens, UniProt P00734); experiment: Inhibition of mammalian thrombin (unknown origin) using Benz-FVR-AMC as substrate preincubated for 10 mins followed by substrate addition measured after 30 mins
Klebsiella pneumoniae [13] = experiment: Potentiation of cefepime-induced antibacterial activity against carbapenem-resistant Klebsiella pneumoniae assessed as cefepime MIC50 at 8 ug/ml by broth microdilution method (reference value: 32 ug/ml); assay type: functional
[14] = Inhibition of mammalian elastase (unknown origin) using Suc-AAPA-pNA as substrate preincubated for 10 mins followed by substrate addition measured after 30 mins; design: species or system Homo sapiens
[15] = Clearance in rat at 1000 mg/kg, po administered via gavage by HPLC/MS analysis; assay type: ADME, organism-based; conditions: in vivo
[16] = Oral bioavailability in rat at 300 to 1000 mg/kg in fasted condition by HPLC/MS analysis; assay type: ADME, organism-based; conditions: in vivo
[17] = Oral bioavailability in rat at 30 mg/kg in fasted state by HPLC/MS analysis; assay type: ADME, organism-based; conditions: in vivo
Enterobacteriaceae [18] = experiment: Potentiation of ceftolozane-induced antibacterial activity against carbapenem-resistant Enterobacteriaceae assessed as ceftolozane MIC50 at 8 ug/ml by broth microdilution method (Rvb > 32 ug/ml); assay type: functional
Pseudomonas aeruginosa [19] = experiment: Potentiation of meropenem-induced antibacterial activity against Pseudomonas aeruginosa assessed as meropenem MIC90 at 8 ug/ml by broth microdilution method (reference value: 16 ug/ml); assay type: functional
[20] = biological target: Matrix metalloproteinase-9 (Homo sapiens, UniProt P14780); experiment: Inhibition of mammalian MMP-9 (unknown origin) using McaPLGLDpaAR-NH2 as substrate preincubated for 10 mins followed by substrate addition measured after 30 mins
Sequence of Matrix metalloproteinase-9 (P14780 whole entry): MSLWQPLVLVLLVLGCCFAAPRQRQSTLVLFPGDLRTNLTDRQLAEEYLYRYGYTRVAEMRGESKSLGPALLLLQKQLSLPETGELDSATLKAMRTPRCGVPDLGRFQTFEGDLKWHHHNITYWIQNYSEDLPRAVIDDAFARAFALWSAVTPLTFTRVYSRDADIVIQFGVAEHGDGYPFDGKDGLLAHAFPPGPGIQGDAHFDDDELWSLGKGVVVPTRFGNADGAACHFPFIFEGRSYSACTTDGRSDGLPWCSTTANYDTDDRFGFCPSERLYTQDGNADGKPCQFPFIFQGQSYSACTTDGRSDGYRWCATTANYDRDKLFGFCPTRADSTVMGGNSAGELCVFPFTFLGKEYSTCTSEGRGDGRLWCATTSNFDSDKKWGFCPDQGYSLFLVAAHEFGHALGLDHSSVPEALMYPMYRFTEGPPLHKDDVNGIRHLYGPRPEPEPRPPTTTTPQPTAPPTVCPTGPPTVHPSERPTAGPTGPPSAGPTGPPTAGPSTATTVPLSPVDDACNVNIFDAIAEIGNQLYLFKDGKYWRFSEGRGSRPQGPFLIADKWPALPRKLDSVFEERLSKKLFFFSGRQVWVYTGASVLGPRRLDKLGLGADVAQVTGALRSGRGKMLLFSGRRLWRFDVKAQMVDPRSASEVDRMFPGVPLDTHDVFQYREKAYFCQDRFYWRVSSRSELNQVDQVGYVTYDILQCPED

Trypsin = Trypsin (Homo sapiens, UniProt P07477+P07478+P35030); experiment: Inhibition of mammalian trypsin (unknown origin) using N-Bz-R-AMC as substrate preincubated for 10 mins followed by substrate addition measured after 30 mins; assay type: protein assay
Enterobacterales [21] = experiment: Potentiation of cefepime-induced antibacterial activity against Enterobacterales assessed as cefepime MIC90 at 8 ug/ml by broth microdilution method (Rvb > 32 ug/ml); assay type: functional
Klebsiella pneumoniae [22] = experiment: Potentiation of ceftolozane-induced antibacterial activity against carbapenem-resistant Klebsiella pneumoniae assessed as ceftolozane MIC90 at 8 ug/ml by broth microdilution method (Rvb > 32 ug/ml); assay type: functional
Acinetobacter baumannii = experiment: Potentiation of cefepime-induced antibacterial activity against carbapenem-resistant Acinetobacter baumannii assessed as cefepime MIC50 at 8 ug/ml by broth microdilution method (Rvb > 32 ug/ml); assay type: functional
[23] = Cmax in rat at 300 mg/kg, iv administered as infusion for 0.5 hrs by HPLC/MS analysis; assay type: ADME, organism-based; design: dose 300 mg/kg, route intravenous; conditions: in vivo
Dipeptidyl peptidase 2 = Dipeptidyl peptidase 2 (Homo sapiens, UniProt Q9UHL4); experiment: Inhibition of mammalian DPP7 (unknown origin) using H-Lys-Pro-AMC as substrate preincubated for 10 mins followed by substrate addition measured after 30 mins
[24] = Inhibition of recombinant Escherichia coli AmpC using nitrocefin as substrate preincubated for 10 mins followed by substrate addition measured every 10 secs for 10 mins by spectrophotometrically analysis
Dipeptidyl peptidase 9 = Dipeptidyl peptidase 9 (Homo sapiens, UniProt Q86TI2); experiment: Inhibition of mammalian DPP9 (unknown origin) using Lys-Pro-AMC as substrate preincubated for 10 mins followed by substrate addition measured after 30 mins
Sequence of Dipeptidyl peptidase 9 (Q86TI2 whole entry): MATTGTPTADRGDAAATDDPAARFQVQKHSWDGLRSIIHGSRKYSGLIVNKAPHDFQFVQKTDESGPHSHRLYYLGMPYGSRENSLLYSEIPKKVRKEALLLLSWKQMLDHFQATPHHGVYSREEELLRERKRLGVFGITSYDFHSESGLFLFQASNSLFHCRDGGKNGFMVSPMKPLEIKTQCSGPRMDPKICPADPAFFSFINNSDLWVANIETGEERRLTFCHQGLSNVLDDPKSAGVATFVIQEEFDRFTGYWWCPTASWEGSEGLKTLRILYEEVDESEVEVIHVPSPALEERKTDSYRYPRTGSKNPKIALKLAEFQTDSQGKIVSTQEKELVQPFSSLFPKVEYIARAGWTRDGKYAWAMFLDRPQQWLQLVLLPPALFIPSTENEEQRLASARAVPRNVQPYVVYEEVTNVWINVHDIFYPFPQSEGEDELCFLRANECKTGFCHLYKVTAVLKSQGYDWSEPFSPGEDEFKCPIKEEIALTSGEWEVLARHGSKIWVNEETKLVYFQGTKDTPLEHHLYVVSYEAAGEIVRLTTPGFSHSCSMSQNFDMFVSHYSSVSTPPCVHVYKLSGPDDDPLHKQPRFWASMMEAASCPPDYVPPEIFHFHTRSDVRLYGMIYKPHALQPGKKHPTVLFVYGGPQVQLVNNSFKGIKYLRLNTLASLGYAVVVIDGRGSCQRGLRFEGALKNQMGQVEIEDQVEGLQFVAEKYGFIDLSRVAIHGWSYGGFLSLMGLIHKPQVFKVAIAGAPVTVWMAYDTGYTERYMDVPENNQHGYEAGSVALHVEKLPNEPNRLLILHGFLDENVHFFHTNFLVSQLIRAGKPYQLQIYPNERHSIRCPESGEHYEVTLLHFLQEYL

Klebsiella pneumoniae [25] = experiment: Potentiation of meropenem-induced bacteriostatic activity against carbapenem-resistant Klebsiella pneumoniae KP1244 harboring KPC-3, SHV-11, and SHV-12 infected in Swiss-Webster mouse model of neutropenic thigh infection assessed as log change in bacterial count in thigh at 50 mg/kg, ip administered at 2 hrs interval for 24 hrs starting from 2 hr post infection and measured post last dose (reference value: 0.62 log10CFU); assay type: functional
[26] = Cmax in rat at 1000 mg/kg, po administered via gavage by HPLC/MS analysis; assay type: ADME, organism-based; design: dose 1000 mg/kg, route oral; conditions: in vivo
Enterobacteriaceae [27] = experiment: Inhibition of NDM/VIM in carbapenem-resistant Enterobacteriaceae assessed as potentiation of meropenem-induced antibacterial activity by measuring meropenem MIC50 at 8 ug/ml by broth microdilution method (reference value: 32 ug/ml)

SMILES: O=C(O)c1c(F)ccc2c1OB(O)[C@@H]1C[C@H]21 [XERUBORBACTAM]
- half-life [1]: 1.25 h
- MIC90 (Enterobacterales [2]): 8 µg/mL
- MEC (Klebsiella pneumoniae [3]): 0.6 µg/mL
- IC50 (Chymotrypsin): > 1000 µM
- MIC50 (Enterobacterales [4]): 0.125 µg/mL
- MEC [5]: 1.25 µg/mL
- Ki [6]: 0.22 µM
- Activity [7]: Toxic
- IC50 (Cathepsin G): 666 µM
- MIC50 (Pseudomonas aeruginosa [8]): 0.25 µg/mL
- IC50 (Chymase): > 1000 µM
- fraction unbound [9]: 0.04
- MIC90 (Enterobacterales [10]): 0.125 µg/mL
- MIC50 (Enterobacteriaceae [11]): < 0.06 µg/mL
- clearance [12]: 7.83 mL/min/kg
- IC50 (Dipeptidyl peptidase 8): > 1000 µM
- IC50 (Prothrombin): > 100 µM
- MIC50 (Klebsiella pneumoniae [13]): ≤ 0.06 µg/mL
- IC50 [14]: 101 µM
- CL/F [15]: 34.2 mL/min/kg
- bioavailability [16]: 24 to 28%
- bioavailability [17]: 43%
- MIC50 (Enterobacteriaceae [18]): 0.125 µg/mL
- MIC90 (Pseudomonas aeruginosa [19]): 8 µg/mL
- IC50 [20]: > 1000 µM
- IC50 (Trypsin): > 1000 µM
- MIC90 (Enterobacterales [21]): 0.25 µg/mL
- MIC90 (Klebsiella pneumoniae [22]): 0.5 µg/mL
- MIC50 (Acinetobacter baumannii): 16 µg/mL
- Cmax [23]: 544 µg/mL
- IC50 (Dipeptidyl peptidase 2): > 1000 µM
- Ki [24]: 0.0085 µM
- IC50 (Dipeptidyl peptidase 9): > 1000 µM
- Activity (Klebsiella pneumoniae [25]): -2.26 log10CFU
- Cmax [26]: 90.4 µg/mL
- MIC50 (Enterobacteriaceae [27]): < 0.015 µg/mL
